In general, TD50 refers to the dose at which the toxic effect under study appears in half of the subjects.

The data set relates to rodent lifetime carcinogenesis bioassay, tumor incidence TD50. The data set can be described thus: chronic cancer bioassays in animals – CPDB, compiled studies (AID 1745844).

Calls of active or inactive are those of the source. The rule behind the calls is not given here.

As to `C=CC=O`, the carcinogen call (mouse, strain Charles River CD1, females, by gavage, site: liver, lesion: hepatocellular adenoma, dosed 78 weeks, study length 78 weeks) is “negative (inactive)”; the carcinogen call (mouse, strain Charles River CD1, females, by gavage, site: lung, lesion: alveolar/bronchiolar adenoma, dosed 78 weeks, study length 78 weeks) was “negative (inactive)”; the carcinogen call (mouse, strain Charles River CD1, males, by gavage, site: liver, lesion: hepatocellular adenoma, dosed 78 weeks, study length 78 weeks) was “negative (inactive)”; the carcinogen call (mouse, strain Charles River CD1, males, by gavage, site: liver, lesion: hepatocellular carcinoma, dosed 78 weeks, study length 78 weeks) was “negative (inactive)”. The TD50 by setting is: (mouse, strain Charles River CD1, females, by gavage, site: lung, lesion: alveolar/bronchiolar carcinoma, dosed 78 weeks, study length 78 weeks) 90.3 mg/kg/day (inactive); (mouse, strain Charles River CD1, males, by gavage, site: lung, lesion: alveolar/bronchiolar adenoma, dosed 78 weeks, study length 78 weeks) 526 mg/kg/day (inactive); (mouse, strain Charles River CD1, males, by gavage, site: lung, lesion: alveolar/bronchiolar carcinoma, dosed 78 weeks, study length 78 weeks) 62.6 mg/kg/day (inactive); (rat, strain Fischer 344, females, in drinking water, site: adrenal gland, lesion: cortical adenoma, dosed 104 weeks, study length 132 weeks) 93.9 mg/kg/day; (rat, strain Fischer 344, females, in drinking water, site: liver, lesion: hepatocellular carcinoma, dosed 104 weeks, study length 132 weeks) 433 mg/kg/day; (rat, strain Fischer 344, females, in drinking water, site: liver, lesion: hyperplastic nodule, dosed 104 weeks, study length 132 weeks) 388 mg/kg/day. The TD50 is 188 mg/kg/day (rat, strain Fischer 344, females, in drinking water, site: liver, lesion: several types, types named in the paper, dosed 104 weeks, study length 132 weeks); 14.4 mg/kg/day (rat, strain Fischer 344, males, in drinking water, site: forestomach, lesion: one or several types, types not named, dosed 117 weeks, study length 132 weeks); 1320 mg/kg/day (rat, strain Fischer 344, males, in drinking water, site: liver, lesion: hepatocellular carcinoma, dosed 117 weeks, study length 132 weeks); 5.53 mg/kg/day (rat, strain Sprague-Dawley, females, by gavage, site: adrenal gland, lesion: pheochromocytoma, dosed 104 weeks, study length 104 weeks); 214 mg/kg/day (rat, strain Sprague-Dawley, females, by gavage, site: liver, lesion: hepatocellular adenoma, dosed 104 weeks, study length 104 weeks); 0.471 mg/kg/day (rat, strain Sprague-Dawley, males, by gavage, site: adrenal gland, lesion: cortical adenoma, dosed 104 weeks, study length 104 weeks). This compound gave a TD50 (rat, strain Sprague-Dawley, males, by gavage, site: adrenal gland, lesion: cortical carcinoma, dosed 104 weeks, study length 104 weeks) of 57.7 mg/kg/day and a TD50 (rat, strain Sprague-Dawley, males, by gavage, site: liver, lesion: hepatocellular adenoma, dosed 104 weeks, study length 104 weeks) of 24.7 mg/kg/day.
`NCCNc1cccc2ccccc12`: the carcinogen call is “negative (inactive)” (mouse, strain B6C3F1, females, in feed, site: any site (literature study), lesion: several types, types named in the paper, dosed 104 weeks, study length 106 weeks) and “negative (inactive)” (mouse, strain B6C3F1, males, in feed, site: any site (literature study), lesion: several types, types named in the paper, dosed 104 weeks, study length 104 weeks). In addition, the TD50 reads like this: (mouse, strain B6C3F1, females, in feed, site: liver, lesion: hepatocellular adenoma + hepatocellular carcinoma + neoplastic nodule, dosed 104 weeks, study length 106 weeks) 25600 mg/kg/day; (mouse, strain B6C3F1, females, in feed, site: lung, lesion: alveolar/bronchiolar adenoma + alveolar/bronchiolar carcinoma, dosed 104 weeks, study length 106 weeks) 4390 mg/kg/day; (rat, strain Fischer 344, females, in feed, site: liver, lesion: hepatocellular adenoma + hepatocellular carcinoma + neoplastic nodule, dosed 104 weeks, study length 107 weeks) 93.5 mg/kg/day; (rat, strain Fischer 344, females, in feed, site: liver, lesion: hepatocellular carcinoma + neoplastic nodule, dosed 104 weeks, study length 107 weeks) 93.5 mg/kg/day (inactive); (rat, strain Fischer 344, males, in feed, site: any site (literature study), lesion: several types, types named in the paper, dosed 104 weeks, study length 107 weeks) 41.6 mg/kg/day (inactive).

These data come from PubChem BioAssay AID1745844 (Carcinogenic Potency Database (CPDB), 2022).
